Results: US20150080580A1, “THIOUREA DERIVATIVES AS a-CHYMOTRYPSIN INHIBITORS” (priority 2013, published 2015)

Key:
α-Chymotrypsin [1] = target: T1, α-Chymotrypsin (Bos taurus, UniProt P00766); assay: α-Chymotrypsin inhibition assay (SPpNA substrate, absorbance at 410 nm); type: biochemical, bovine; settings: for IC50: α-chymotrypsin, substrate SPpNA 0.4 mM, pH 7.6, 30° C., n = 3
T1 construct: purchased Sigma-Aldrich (USA) C4129; host or cells: bovine pancreas
Procedure: (§1) α-Chymotrypsin (bovine pancreas, C4129) and N-succinyl-L-phenylalanine-p-nitroaniline (S2628) were purchased from Sigma-Aldrich (USA). Chymostatin (152845) from MP Biomedicals, LLC, USA, Tris(hydroxymethyl)aminomethane from Scharlau Chemie Barcelona, Spain and all other reagents were obtained from E. Merck and were of analytical grade. All other solvents and reagents were of analytical grade and used directly without purification.
This was performed in 50 mM Tris-HCl buffer pH 7.6 with 10 mM CaCl2. α-Chymotrypsin (12 units/mL prepared in 50 mM Tris-HCl buffer) with the different concentration of test compounds prepared in DMSO. It was then incubated at 30° C. for 25 min. The reaction was started by the addition of the substrate, N-succinyl-L-phenylalanine-p-nitroanilide (final concentration of 0.4 mM, prepared in the buffer as mentioned above). The change in absorbance due to released p-nitroaniline was continuously monitored at 410 nm (Choudhary et al., 2011). All the experiments were in a final volume of 200 μL in triplicate, and data was taken using a micro-plate reader (SpectraMax M2, Molecular Devices, Calif., USA).
The results were processed by using SoftMax Pro 4.8 then analyzed by MS Excel software. The % of inhibition based upon initial velocity and calculated as: […]
IC50 (Inhibition of enzymatic hydrolysis of the substrate SPpNA by 50%) value was calculated using EZ-Fit software (Perellela Scientific, Inc., Amherst, Mars, USA).

α-Chymotrypsin [2] = target: T1, α-Chymotrypsin; assay: α-Chymotrypsin inhibition kinetic study (Lineweaver-Burk, Dixon, Hanes-Woolf plots); type: biochemical, bovine; settings: for Type of inhibition: from Lineweaver-Burk, Dixon and Hanes-Woolf plots; for Ki: substrate SPpNA 0.4-3.2 mM, n = 3, read-out: Ki ± SEM
From the text: as §1
The change in concentration of the substrate/product (rate of reaction) was measured as optical density per minute (OD/min). This OD/min was obtained by incorporating different concentrations of compounds over substrate (SPpNA) concentrations between 0.4 mM and 3.2 mM in micro-plate reader. Reciprocal of OD/min against the reciprocal of the substrate concentration, defined as Lineweaver-Burk plot (and its secondary plot; slope vs compound concentration); the Dixon plot (and its secondary plot; slope vs reciprocal of compound concentration) and then Hanes-Woolf plot were plotted (Lineweaver et al., 1934; Dixon, 1953; Segel, 1993) Graphs were plotted using GraFit 4 (Erithacus Software Limited, Surrey, UK) and GraphPad Prism 5 (GraphPad Software, California, USA). The types of inhibition were determined by the graphical views of Dixon plots, Lineweaver-Burk plots and their secondary plots as well as Hanes-Woolf plot. The Ki values, obtained directly from the software, also were cross-checked and tallied in these graphs. Final concentration of DMSO was maintained 5.5%.

[3] = Cell proliferation inhibition (cytotoxicity) MTT assay for 3T3 cell line; type: cell-based, Mouse; settings: 3T3 mouse fibroblast cells; 3T3 mouse fibroblasts, MTT, 72 hrs, n = 3; read-out: 3T3 cell-line GI50 ± SEM
Procedure: (§2) It was evaluated by using the MTT (3-[4,5-dimethylthiazole-2-yl]-2,5-diphenyl-tetrazolium bromide) assay (Mosmann, 1983). The 3T3 cell-lines (Mouse Fibroblasts) were cultured in Dulbecco's Modified Eagle's Medium, which was later supplemented with 5% of bovine serum, 100 IU/mL of penicillin, and 100 μg/mL of streptomycin, in 5% CO2 incubator at 37° C. Exponentially growing cell, 1×10^4 cells/well incorporated into each well of 96-well plates. Then, fresh the medium containing different concentrations of compounds were loaded in each well after 24 hours. Again, after 72 hrs, fresh the medium containing 0.5 mg/mL MTT were loaded in each well, and incubated further for 4 hrs. Subsequently, the media containing MTT was replaced by 100 μL of DMSO for 15 min, and then the absorbance was taken at 570 nm.

3T3 cell line = assay: as above; type: cell-based, Mouse
Procedure: as §2

Row | IC50 (α-Chymotrypsin [1]) [µM] | Type of inhibition (α-Chymotrypsin [2]) | Ki (α-Chymotrypsin [2]) [µM] | α-chymotrypsin inhibition (in words) (α-Chymotrypsin [1]) | Structure (SMILES) | GI50 at 72 h [3] [µM] | growth inhibition for 3T3 cell lines (in words) (3T3 cell line)
1 | 11.6 | mixed-type | 8.6 ± 0.8 | – | S=C(Nc1ccc(Cl)cc1)Nc1cccc(Cl)c1 [Compound 1, 1-(3-Chlorophenyl)-3-(4-chlorophenyl) thiourea] | > 30 | –
2 | 18.8 ± 0.2 | non-competitive-type | 15.5 ± 0.4 | – | S=C(Nc1cccc(Cl)c1)Nc1ccc(Cl)c(Cl)c1 [Compound 2, 1-(3-Chlorophenyl)-3-(3,4-dichlorophenyl) thiourea] | > 30 | –
3 | 23.3 | Mixed | 15.9 ± 1.5 | – | S=C(Nc1cccc(Cl)c1)Nc1cccc(Cl)c1 [Compound 3, 1,3-Bis(3-chlorophenyl) thiourea] | > 30 | –
4 | 25.4 ± 0.2 | Mixed | 21.2 ± 1.5 | – | COc1cccc(NC(=S)Nc2cccc(Cl)c2)c1 [Compound 4, 1-(3-Chlorophenyl)-3-(3-methoxyphenyl) thiourea] | > 30 | –
5 | 26.3 ± 4.9 | Non- Competitive | 25.3 ± 4.6 | – | COc1ccccc1NC(=S)Nc1cccc(Cl)c1 [Compound 5, 1-(3-Chlorophenyl)-3-(2-methoxyphenyl) thiourea] | 10.7 ± 1.2 | showed growth inhibition
6 | 34.3 ± 2.8 | Mixed | 25.6 ± 0.9 | – | COc1ccc(NC(=S)Nc2cccc(Cl)c2)cc1 [Compound 6, 1-(3-Chlorophenyl)-3-(4-methoxyphenyl) thiourea] | > 30 | –
7 | 40.4 ± 1.2 | Competitive | 25.8 ± 0.9 | – | Cc1ccc(Cl)cc1NC(=S)Nc1cccc(Cl)c1 [Compound 7, 1-(5-Chloro-2-methylphenyl)-3-(3-chlorophenyl) thiourea] | 24.6 ± 0.2 | showed growth inhibition
8 | 48.5 ± 1.7 | Mixed | 31.6 ± 1.8 | – | Cc1cccc(NC(=S)Nc2cccc(Cl)c2)c1 [Compound 10, 1-(3-Chlorophenyl)-3-m-tolylthiourea] | > 30 | –
9 | 66.9 ± 4.9 | Competitive | 49.8 ± 2.6 | – | Fc1ccc(NC(=S)Nc2cccc(Cl)c2)cc1F [Compound 11, 1-(3-Chlorophenyl)-3-(3,4-difluorophenyl) thiourea] | > 30 | –
10 | 68.4 ± 8.5 | Competitive | 62.5 ± 2.5 | – | Fc1ccc(NC(=S)Nc2cccc(Cl)c2)cc1 [Compound 12, 1-(3-Chlorophenyl)-3-(4-fluorophenyl) thiourea] | > 30 | –
11 | 107 ± 9.1 | Competitive | 87.3 ± 6.7 | – | S=C(Nc1cccc(Cl)c1)Nc1cccc(Cl)c1Cl [Compound 13, 1-(3-chlorophenyl)-3-(2,3-dichlorophenyl) thiourea] | > 30 | –
12 | 151 ± 8.8 | Competitive | 107 ± 5.5 | – | Cc1ccc(C)c(NC(=S)Nc2cccc(Cl)c2)c1 [Compound 14, 1-(3-Chlorophenyl)-3-(2,5-dimethylphenyl) thiourea] | > 30 | –
13 | 192 ± 9.2 | Non- Competitive | 173 ± 7.9 | – | Cc1ccc(NC(=S)Nc2cccc(Cl)c2)c(C)c1 [Compound 15, 1-(3-Chlorophenyl)-3-(2,4-dimethylphenyl) thiourea] | > 30 | –
14 | 247.3 ± 1.7 | Competitive | 210 ± 11.8 | – | S=C(Nc1cccc(Cl)c1)Nc1c(Cl)cccc1Cl [Compound 16, 1-(3-Chlorophenyl)-3-(2,6-dichlorophenyl) thiourea] | > 30 | –
15 | 387 ± 13.1 | Competitive | 329 ± 11.6 | – | Cc1ccccc1NC(=S)Nc1cccc(Cl)c1 [Compound 17, 1-(3-Chlorophenyl)-3-o-tolylthiourea] | > 30 | –
16 | 186 ± 12.8 | Competitive | 148 ± 4.8 | – | S=C(NCc1ccncc1)Nc1cccc(Cl)c1 [Compound 18, 1-(3-Chlorophenyl)-3-(pyridin-4-ylmethyl)thiourea] | > 30 | –

Row | IC50 (α-Chymotrypsin [1]) [µM] | Type of inhibition (α-Chymotrypsin [2]) | Ki (α-Chymotrypsin [2]) [µM] | α-chymotrypsin inhibition (in words) (α-Chymotrypsin [1]) | Structure (SMILES) | GI50 at 72 h [3] [µM] | growth inhibition for 3T3 cell lines (in words) (3T3 cell line)
17 | 199 | Competitive | 166 ± 5.9 | – | S=C(Nc1cccnc1)Nc1cccc(Cl)c1 [Compound 19, 1-(3-Chlorophenyl)-3-(pyridin-3-yl) thiourea] | > 30 | –
18 | 45.7 ± 2.9 | competitive-type | 21.1 ± 2.5 | – | S=C(Nc1ccccc1)Nc1ccc(Br)cc1 [Compound 20, 1-(4-Bromophenyl)-3-phenylthiourea] | > 30 | –
19 | 79.2 ± 0.6 | Mixed | 60.8 ± 7.4 | – | S=C(Nc1ccccc1)Nc1cccc(Br)c1 [Compound 21, 1-(3-Bromophenyl)-3-phenylthiourea] | > 30 | –
20 | 193 ± 1 | Competitive | 142 ± 5 | – | Fc1ccc(NC(=S)Nc2ccccc2)c(F)c1 [Compound 22, 1-(2,4-Difluorophenyl)-3-phenylthiourea] | > 30 | –
21 | > 500 | – | – | failed to show any inhibition | S=C(Nc1cccc(Cl)c1)Nc1ccccc1Cl [Compound 23, 1-(2-Chlorophenyl)-3-(3-chlorophenyl) thiourea] | – | –
22 | > 500 | – | – | – | Cc1cccc(C)c1NC(=S)Nc1cccc(Cl)c1 [Compound 24, 1-(3-Chlorophenyl)-3-(2,6-dimethylphenyl) thiourea] | – | –
23 | > 500 | – | – | – | Cc1cccnc1NC(=S)Nc1cccc(Cl)c1 [Compound 25, 1-(3-Chlorophenyl)-3-(3-methylpyridin-2-yl)thiourea] | – | –
24 | > 500 | – | – | – | S=C(Nc1cccc(Cl)c1)Nc1cccnc1Cl [Compound 26, 1-(3-Chlorophenyl)-3-(2-chloropyridin-3-yl)thiourea] | – | –
25 | > 500 | – | – | – | COc1ccc(OC)c(NC(=S)Nc2ccccc2)c1 [Compound 27, 1-(2,5-Dimethoxyphenyl)-3-phenylthiourea] | – | –
26 | > 500 | – | – | – | S=C(Nc1ccccc1)Nc1ccccn1 [Compound 28, 1-Phenyl-3-(pyridin-2-yl) thiourea] | – | –
27 | > 500 | – | – | inactive | S=C(Nc1ccccc1)Nc1cccnc1 [Compound 29, 1-Phenyl-3-(pyridin-3-yl) thiourea] | – | –
28 | > 500 | – | – | – | S=C(Nc1ccccc1)Nc1ccncc1 [Compound 30, 1-Phenyl-3-(pyridin-4-yl) thiourea] | – | –
29 | > 500 | – | – | – | Cc1ccc(NC(=S)Nc2ccccc2)nc1C [Compound 32, 1-(5,6-Dimethylpyridin-2-yl)-3-phenylthiourea] | – | –
30 | > 500 | – | – | – | S=C(Nc1ccccc1)Nc1cccnc1Cl [Compound 33, 1-(2-Chloropyridin-3-yl)-3-phenylthiourea] | – | –
31 | > 500 | – | – | – | S=C(NCc1cccnc1)Nc1ccccc1 [Compound 34, 1-Phenyl-3-(pyridin-3-ylmethyl)thiourea] | – | –
32 | > 500 | – | – | – | S=C(NCc1ccncc1)Nc1ccccc1 [Compound 35, 1-Phenyl-3-(pyridin-4-ylmethyl)thiourea] | – | –

Row | Structure (SMILES) | IC50 (α-Chymotrypsin [1]) [µM] | Type of inhibition (α-Chymotrypsin [2]) | Ki (α-Chymotrypsin [2]) [µM] | α-chymotrypsin inhibition (in words) (α-Chymotrypsin [1]) | GI50 at 72 h [3] [µM] | growth inhibition for 3T3 cell lines (in words) (3T3 cell line)
33 | Cc1cccnc1NC(=S)Nc1ccccc1 [Compound 31, 1-(3-Methylpyridin-2-yl)-3-phenylthiourea] | > 500 | – | – | – | – | –
